# Measured values taken from US20260034150A1, “CANNABIDIOL FOR USE IN TREATING OR PREVENTING RECURRENT PERICARDITIS” (CARDIOL THERAPEUTICS INC., priority 2022, published 2026).
# Several values for one entry are separate records, joined by “and”; a condition that tells them apart may be missing. Equal entries are not always repeated.
# What was measured:
# NLRP3 inflammasome = experiment: IL-1β ELISA in the in vitro model of NLRP3 inflammasome activation (LPS + ATP); type: cell-based, mouse; settings: for attenuation of the increase in IL-1β: CBD 10 μM, LPS + ATP
# Protocol: An experiment was performed to determine the effect of 10 μM cannabidiol on NLRP3 inflammasome activation in an in vitro model as follows. J774A.1 mouse macrophages were cultured in 96-well plates (15,000 cells/well) and divided into the following groups to which various treatments described below were administered during a period of six hours: • 1. Group 1 (CNT)—cells received nothing during the 6-hour treatment period. • 2. Group 2 (LPS)—cells received LPS (1 μg/ml) for 6 hours. • 3. Group 3 (ATP)—cells received nothing for 5.5 hours and then ATP (5 mM) for the last 30 minutes. • 4. Group 4 (LPS+ATP)—cells received LPS (1 μg/mL) for 5.5 hours and ATP (5 mM) for the last 30 minutes. • 5. […] After 6 hours, 100 μL of a sample from each well of cells was collected and loaded as a single point in a specific ELISA assay that was used to measure the amount of IL-1β secreted by the macrophages in each sample. IL-1β is an indicator of and positively correlated with NLRP3 inflammasome activation. An experiment was performed to evaluate the effect of different doses of cannabidiol (10, 1, 0.1, and 0.01 μM) using the in vitro model of Example 1A. In this experiment, J774A.1 mouse macrophages were cultured in 96-well plates (15,000 cells/well) and divided into the following groups to which various treatments described below were administered during a period of six hours: • 1. Group 1 (Control)—cells received nothing during the 6-hour treatment period. • 2. Group 2 (LPS+ATP)—cells received LPS (1 μg/mL) for 5.5 hours and ATP (5 mM) for the last 30 minutes. • 3. […] After 6 hours, 100 μL of a sample from each well of cells was collected and loaded as a single point in a specific ELISA assay that was used to measure the amount of IL-1β in each sample.
# IL-6 = IL-6 ELISA in LPS-treated macrophages (in vitro model of inflammation); type: cell-based, mouse; settings: CBD 10 μM + LPS 1 μg/mL for 6 hours; J774A.1
# Protocol: Experiments were performed to evaluate cannabidiol's anti-inflammatory activity and mechanism of action. The secretion of IL-6 and the transcription of the NLRP3 inflammasome components, pro-IL-1β mRNA, and NLRP3 mRNA, are regulated by the NF-κβ pathway and activated by LPS. In a first experiment, J774A.1 mouse macrophages were cultured in 96-well plates (15,000 cells/well) and divided into the following groups to which various treatments described below were administered during a period of six hours: • 1. Group 1 (Control)—cells received nothing during the 6 hours treatment period. • 2. Group 2 (LPS)—cells received LPS (1 μg/ml) for 6 hours. • 3. […] After 6 hours, 100 μL of a sample from each well of cells was collected and loaded as a single point in a specific ELISA assay that was used to measure the amount of IL-6 in each sample. […] A second experiment was performed to evaluate the effect of cannabidiol on the transcription of components of the NLRP3 inflammasome, namely, pro-IL-1β mRNA and NLRP3 mRNA. In this second experiment, J774A.1 mouse macrophages were cultured in individual plates (1,000,000 cells/well) and divided into the following groups to which various treatments described below were administered during a period of six hours. • 1. Group 1 (Control)—cells received nothing during the 6 hours treatment period. • 2. […]
# pro-IL-1β mRNA = experiment: PCR of pro-IL-1β mRNA transcription in LPS-treated macrophages; type: cell-based, mouse; settings: CBD 10 μM + LPS 1 μg/mL for 6 hours; J774A.1
# Protocol: (§1) Experiments were performed to evaluate cannabidiol's anti-inflammatory activity and mechanism of action. The secretion of IL-6 and the transcription of the NLRP3 inflammasome components, pro-IL-1β mRNA, and NLRP3 mRNA, are regulated by the NF-κβ pathway and activated by LPS. After 6 hours, 100 μL of a sample from each well of cells was collected and loaded as a single point in a specific ELISA assay that was used to measure the amount of IL-6 in each sample. […] A second experiment was performed to evaluate the effect of cannabidiol on the transcription of components of the NLRP3 inflammasome, namely, pro-IL-1β mRNA and NLRP3 mRNA. In this second experiment, J774A.1 mouse macrophages were cultured in individual plates (1,000,000 cells/well) and divided into the following groups to which various treatments described below were administered during a period of six hours. • 1. Group 1 (Control)—cells received nothing during the 6 hours treatment period. • 2. Group 2 (LPS)—cells received LPS (1 μg/ml) for 6 hours. • 3. […] At the end of the six-hour treatment period, samples from each group were collected and processed using Polymerase Chain Reaction (PCR) to measure the level of transcription of pro-IL-1B mRNA and NLRP3 mRNA in the samples.
# NLRP3 mRNA = experiment: PCR of NLRP3 mRNA transcription in LPS-treated macrophages; type: cell-based, mouse; settings: CBD 10 μM + LPS 1 μg/mL for 6 hours; J774A.1
# Protocol: as §1
# [1] = test system: mouse model of pericarditis; experiment: Mouse model of pericarditis (Zymosan A): pericardial space by transthoracic echocardiography; type: in vivo
# Protocol: (§2) Experiments were conducted using a mouse model of pericarditis described in Mauro et al. (10), which mouse model is incorporated herein by reference for its disclosure of the mouse model.
# (§3) Adult Institute of Cancer Research (IRC) mice (10 weeks of age) supplied by Harlan Laboratories (Harlan Sprague Dawley Inc.) were used and divided into the following treatment groups, with each group consisting of 4-5 mice: • 1. Group 1 (NaCl+Veh)—mice received normal saline (0.9% w/v NaCl) in the surgical procedure described below and were subsequently treated for seven days with a vehicle consisting of ethanol:Cremophor EL:water (1:1:18). • 2. Group 2 (NaCl+)—mice received normal saline (0.9% w/v NaCl) in the surgical procedure described below and were subsequently treated for seven days with cannabidiol at a dose of 10 mg/kg. The cannabidiol was dissolved in the same vehicle as the vehicle used for Group 1. • 3. Group 3 (Zym+Veh)—mice received Zymosan A in the surgical procedure described below and were subsequently treated for seven days with the same vehicle as the vehicle used for Group 1. • 4. […] The cannabidiol was dissolved in the same vehicle as the vehicle used for Group 1. • 5. […] The cannabidiol was dissolved in the same vehicle as the vehicle used for Group 1.
# The mice of all four treatment groups were anesthetized, intubated orotracheally, and placed in the right lateral decubitus position. A left thoracotomy was then performed. Under direct visualization and using a 30 Gauge needle, 1 mg of Zymosan A (referred to herein also as “zymosan”) dissolved in 50 μl of sterile normal saline (0.9% w/v NaCl) was delivered into the pericardial space of the mice of Groups 3 and 4 by carefully lifting the pericardial sac with forceps until a complete distribution of the solution into the pericardium was achieved. […] All mice received analgesia for the peri-operative period.
# For all groups, treatments with either cannabidiol dissolved in vehicle, or vehicle alone, were administered intraperitoneally (IP) every day for seven days with the first treatment administered approximately 30 minutes after the surgery.
# On day seven, echocardiography was performed on the mice of all groups under light anesthesia using a Prospect™ T1 ultrasound imaging system (Scintica, London, Canada). In this procedure, the left ventricle in the parasternal short-axis view at the mid-ventricular level was visualized in the bi-dimensional mode (B-mode). The image was optimized for the anterior wall, and the image was zoomed in to visualize the anterior pericardial structures. After optimization of the image, amono-dimensional mode (M-mode) was acquired for optimal spatial-temporal resolution. An investigator blinded to group allocation measured the maximal pericardial space between the 2 layers of the pericardium in both M- and B-mode. The pericardial space is a one-dimensional measure of pericardial effusion.
# [2] = test system: mouse model of pericarditis; experiment: Mouse model of pericarditis (Zymosan A): pericardial thickness by histochemistry; type: in vivo; settings: day seven, differences not statistically significant
# Protocol: as §2, §3
# The mice of all four treatment groups were anesthetized, intubated orotracheally, and placed in the right lateral decubitus position. A left thoracotomy was then performed. […]
# Following echocardiography, and on day seven, the mice were sacrificed, and their hearts were explanted and processed for pathology. […] An investigator blinded to group allocation measured the pericardial thickness with the aid of computer morphometry using Image-Pro™ Plus 6.0 software (Media Cybernetics, Silver Spring, MD).
structure (smiles),measurement,setting,value
"C=C(C)[C@@H]1CCC(C)=C[C@H]1c1c(O)cc(CCCCC)cc1O [CBD, 2-[(1R,6R)-3-methyl-6-prop-1-en-2-ylcyclohex-2-en-1-yl]-5-pentylbenzene-1,3-diol]",IL-1β concentration versus LPS+ATP group (FIG. 1A),"NLRP3 inflammasome; CBD 10 μM + LPS + ATP versus LPS + ATP, J774A.1",significantly lower concentrations of IL-1β
same,effect of different concentrations on IL-1β (FIG. 1B),"NLRP3 inflammasome; CBD 10, 1, 0.1 and 0.01 μM + LPS + ATP, J774A.1",effective to attenuate the increase in IL-1β in a dose dependent fashion
same,IL-1β with CBD alone versus Control group,"NLRP3 inflammasome; CBD alone 10 μM, no LPS or ATP, J774A.1",no different than the Control group
same,"IL-1β Concentration, CBD, Mean","NLRP3 inflammasome; Table 1A.1, J774A.1 macrophages, CBD 10 μM alone for 6 hours, mean",6 pg/mL
same,"IL-1β Concentration, CBD","NLRP3 inflammasome; Table 1A.1, J774A.1 macrophages, CBD 10 μM alone for 6 hours, single wells",5.9 pg/mL and 6.1 pg/mL
same,"IL-1β Concentration, CBD + LPS + ATP, Mean","NLRP3 inflammasome; Table 1A.1, J774A.1, CBD 10 μM + LPS 1 μg/mL 5.5 hours, ATP 5 mM last 30 minutes, mean",118.725 pg/mL
same,"IL-1β Concentration, CBD","NLRP3 inflammasome; Table 1A.2 (repeat), J774A.1, CBD 10 μM alone, single wells",7.86 pg/mL and 6.35 pg/mL and 8.81 pg/mL and 9.46 pg/mL and 10.46 pg/mL and 8.97 pg/mL
same,"IL-1β Concentration, LPS + ATP + CBD","NLRP3 inflammasome; Table 1A.3 (repeat), J774A.1, CBD 10 μM + LPS + ATP, single wells",10.8 pg/mL and 17 pg/mL and 11.31 pg/mL and 18.96 pg/mL
same,"IL-1β Concentration, LPS + ATP + CBD, Mean","NLRP3 inflammasome; Table 1A.4, mean of Tables 1A.2 and 1A.3, CBD 10 μM + LPS + ATP",19.44 pg/mL
same,"IL-1β Concentration, CBD, Mean","NLRP3 inflammasome; Table 1A.4, mean of Tables 1A.2 and 1A.3, CBD 10 μM alone",8.898 pg/mL
same,attenuation of the increase in IL-1β,NLRP3 inflammasome; calculated from Table 1A.1 means,over 70%
same,attenuation of the increase in IL-1β,NLRP3 inflammasome; calculated from Table 1A.4 means,about 97.65%
same,effect on LPS-induced increase in IL-6 (FIG. 1C),IL-6,attenuated this increase completely
same,effect on LPS-induced transcription of pro-IL-1β mRNA (FIG. 1D),pro-IL-1β mRNA,significantly attenuated these increases
same,effect on LPS-induced transcription of NLRP3 mRNA (FIG. 1E),NLRP3 mRNA,significantly attenuated these increases
same,"effect on increase in measured pericardial space, Zym+CBD 1 mg/kg (FIG. 2)","[1]; Zymosan A mice, CBD 1 mg/kg IP daily for seven days",attenuated the increase in the measured pericardial space to the same degree as cannabidiol at a dose of 10 mg/kg
same,"Measured pericardial space, Zym + CBD, Mean","[1]; Zymosan A mice, CBD 10 mg/kg IP daily for seven days, day seven, mean",0.1177 mm
same,"Measured pericardial space, Zym + CBD","[1]; Zymosan A mice, CBD 10 mg/kg IP daily for seven days, day seven, single mice",0.103 mm and 0.152 mm and 0.112 mm and 0.104 mm
same,"pericardial space versus Group 1 (Saline+Veh), Zym+CBD","[1]; Zymosan A mice, CBD 10 mg/kg IP, differences not statistically significant",did not develop a pericardial space greater than that of the mice of Group 1
same,attenuation of the increase in the measured pericardial space,"[1]; calculated from Table 2 means, Zymosan A mice, CBD 10 mg/kg IP",at least 85%
same,"Measured pericardial space, Saline + CBD","[1]; sham (saline) mice, CBD 10 mg/kg IP daily for seven days, day seven, single mice",0.098 mm and 0.097 mm and 0.105 mm
same,"pericardial space versus Group 1 (Saline+Veh), Saline+CBD","[1]; sham mice, CBD 10 mg/kg IP, differences not statistically significant",did not develop a pericardial space greater than that of the mice of Group 1
same,"pericardial thickness versus Group 1 (NaCl+Veh), Zym+CBD 1 mg/kg","[2]; Zymosan A mice, CBD 1 mg/kg IP",did not develop a pericardial thickness different from that of the mice of Group 1
same,"pericardial thickness versus Group 1 (NaCl+Veh), Zym+CBD 10 mg/kg (FIG. 3)","[2]; Zymosan A mice, CBD 10 mg/kg IP",did not develop a pericardial thickness different from that of the mice of Group 1
same,"pericardial thickness versus Group 1 (NaCl+Veh), NaCl+CBD (FIG. 3)","[2]; sham mice, CBD 10 mg/kg IP",did not develop a pericardial thickness different from that of the mice of Group 1
